# Columns and labels:
# [1] = target: T1, TyzB (Mycobacterium tuberculosis, UniProt P95234)
# T1 construct: gene moeW
# [2] = target: T2, TyzA (Mycobacterium tuberculosis, UniProt P95232)
# T2 construct: gene Rv2336
# [3] = target: T3, TyzC (Mycobacterium tuberculosis, UniProt P95233)
# T3 construct: gene Rv2337c
# T3 sequence (P95233 entry or part of it): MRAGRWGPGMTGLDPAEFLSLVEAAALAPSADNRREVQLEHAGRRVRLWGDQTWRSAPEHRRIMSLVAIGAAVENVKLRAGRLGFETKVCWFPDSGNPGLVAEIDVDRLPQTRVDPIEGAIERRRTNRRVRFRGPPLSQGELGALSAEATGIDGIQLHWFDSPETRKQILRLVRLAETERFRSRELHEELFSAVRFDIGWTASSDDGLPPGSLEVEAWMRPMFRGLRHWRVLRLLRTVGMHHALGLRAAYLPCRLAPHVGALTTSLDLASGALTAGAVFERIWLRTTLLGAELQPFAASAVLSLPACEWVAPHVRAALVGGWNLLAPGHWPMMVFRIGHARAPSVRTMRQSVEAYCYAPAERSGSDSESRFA
# T1 sequence (P95234 entry or part of it): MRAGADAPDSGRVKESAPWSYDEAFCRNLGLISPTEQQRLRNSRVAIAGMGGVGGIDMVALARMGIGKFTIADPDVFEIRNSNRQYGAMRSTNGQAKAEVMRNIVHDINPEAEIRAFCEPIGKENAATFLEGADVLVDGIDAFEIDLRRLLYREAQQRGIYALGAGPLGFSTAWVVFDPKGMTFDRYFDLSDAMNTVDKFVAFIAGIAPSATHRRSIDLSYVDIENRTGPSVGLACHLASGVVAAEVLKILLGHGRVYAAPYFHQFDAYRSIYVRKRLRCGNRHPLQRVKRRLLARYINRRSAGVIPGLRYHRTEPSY
# T2 sequence (P95232 entry or part of it): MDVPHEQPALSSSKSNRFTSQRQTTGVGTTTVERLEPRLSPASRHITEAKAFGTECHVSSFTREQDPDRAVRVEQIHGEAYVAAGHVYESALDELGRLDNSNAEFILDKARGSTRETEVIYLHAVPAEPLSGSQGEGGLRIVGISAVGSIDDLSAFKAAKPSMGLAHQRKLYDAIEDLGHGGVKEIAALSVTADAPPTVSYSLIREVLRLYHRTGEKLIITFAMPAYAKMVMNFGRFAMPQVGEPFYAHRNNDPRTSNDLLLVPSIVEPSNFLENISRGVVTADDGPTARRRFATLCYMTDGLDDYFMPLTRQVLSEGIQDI
smiles,measurement,setting,value
Nc1ncnc2c1ncn2[C@@H]1O[C@H](COP(=O)(O)OP(=O)(O)OP(=O)(O)O)[C@@H](O)[C@H]1O [ATP],"LC-QTOF endpoint assay, purified TyzA plus RHA1 pTip-TyzBC lysate",[1],"performed ATP-dependent cyclization and O2-dependent desaturation of C12:0-L-Tyr, respectively"
CCCCCCCCCCCC(=O)SCCNC(=O)CCNC(=O)[C@H](O)C(C)(C)COP(=O)(O)OP(=O)(O)OC[C@H]1O[C@@H](n2cnc3c(N)ncnc32)[C@H](O)[C@@H]1OP(=O)(O)O [C12:0-CoA],KiS,[2],450 ± 90 µM
CCCCCCCCCCCC(=O)N[C@@H](Cc1ccc(O)cc1)C(=O)O [C12:0-L-Tyr],"LC-QTOF endpoint assay, purified TyzA plus RHA1 pTip-TyzBC lysate",[3],"performed ATP-dependent cyclization and O2-dependent desaturation of C12:0-L-Tyr, respectively"

# — paper PMC10404671, “Deciphering the biosynthesis of a novel lipid in Mycobacterium tuberculosis expands the known roles of the nitroreductase superfamily” (The Journal of Biological Chemistry, 2023)
